From patent publication US6046231A, “Use of 4'-bromoflavone in a cancer chemopreventative composition and method” (The Board of Trustees of the University of Illinois, priority 1999, dated 2000)
Read-outs that look alike come from different tables or passages of the source.

Tests used:
cytochrome P-4501A1 = details: cited from earlier work
GST Yb (μ class) = experiment: Western blot of GST Yb (μ-type) expression in H4IIE cells; format: cell-based, rat; details: for GST Yb (μ) induction: H4IIE cells
Description: Western Blot Analysis Glutathione S-transferase Expression. Cultured H4IIE rat hepatoma cells were treated with test agent with various concentrations or various time points. […] Cells were harvested using SDS lysis buffer (20 mM Tris-Cl, pH 6.8, containing 0.4% SDS (w/v), 4% glycerol, 0.24 M β-mercaptoethanol, and 0.5% bromphenol) and the lysates were boiled for 5 minutes, then stored at -20° C. An aliquot of lysate was used for protein determination using a bicichoninic acid protein assay kit with BSA as a standard. Equivalent amounts of protein were electrophoresed by SDS-PAGE on precast 12.5% Tris-glycine acrylamide gels (Novex, San Diego, Calif.), then transferred to polyvinylidene difluoride (PDVF) membranes. Nonspecific binding sites were blocked with 10% nonfat dry milk and blotting was performed with goat polyclonal antirat GSTYa (α class) IgG or antirat, GSTYb (μ class) IgG and analyzed by alkaline phosphatase-conjugated antigoat IgG secondary antibody (Oxford Biomed Research, Inc.) and quantified using an AP 20 Alkaline Phosphatase Kit detection system (Oxford Biomed Research, Inc.).
Induction of Expression of Glutathione S-transferase Ya (α-type) and Yb (μ-type) in Cell Cultures. […] To date, the superfamily of mammalian cytosolic GST isozymes has been defined genetically to consist of four classes; α, μ, π, and θ, which differ in tissue-specificexpression and distribution, as well as substrate specificity. […] Cultured H4IIE cells were treated either with 10 μM of 4'-BF (FIG. 7B) or sulforaphane for 0, 2, 4, 8, 16, 24, and 48 hours for a time-dependent study, or with 0.16, 0.8, 4, 10, 20, and 50 μM of 4'-BF (FIG. 7A) or sulforaphane for 24 hr for a dose-dependent study (FIG. 7A). The expressions of two major detoxification isoforms of GSTs (GST Ya: α-type, and GST Yb: μ-type) mediated by 4'-BF or sulforaphane were investigated in H4EII rat hepatoma cells using Western blotting technique.

[1] = system: quinone reductase (QR), mutant Hepa 1c1c7 cells (TAOBP^r cl and BP^r cl); experiment: QR induction in mutant Hepa 1c1c7 cell lines (mono-/bifunctional inducer); format: cell-based, murine; details: wild-type vs mutant cells
Description: Determination of Quinone Reductase Activity in Cell Cultures. To determine the potency of inducers, Hepa 1c1c7 murine hepatoma cells as described in the Gerhauser publication were placed in 96-well plates at a density of 1×10^4 cells/ml in 200 μl of medium. After a preincubation period of 24 hr, the media were decanted and 190 μl fresh media were added to each well. Ten (10) μl test agents dissolved in 10% DMSO (final concentration of DMSO is 0.5%) with a serial 2-fold dilutions were introduced to each well, and the plates were incubated for an additional 48 hours. Specific QR activity was determined by measuring the NADPH-dependent menadiol-mediated reduction of 3-(4, 5-dimethylthiazo-2-yl)-2,5-diphenyltetrazolium bromide to blue formazan formed per mg protein per minute. Protein was determined in an identical set of test plates by staining with crystal violet. […] Induction of QR activity was calculated by comparing the QR specific activity of agent-treated cells with that of solvent-treated cells, and a plot of ratio was generated. […]
Induction of Quinone Reductase in Hepa 1c1c7 Cells. […] Induction of QR activity was calculated by comparing the QR specific activity of agent-treated cells with the QR specific activity of solvent-treated cells, and a plot of ratios was generated. […]

O=c1cc(-c2ccc(Br)cc2)oc2ccccc12 [4'-Bromoflavone]
levels of cytochrome P-4501A1 (cytochrome P-4501A1): significantly increase | levels of cytochrome P-4501A1 (cytochrome P-4501A1; listed as 4'-bromoflavone): phase I induction | maximum induction time, GST Yb (GST Yb (μ class); 10 μM, 0-48 h): 16 to 24 h | maximum induction concentration, GST Yb (GST Yb (μ class); 0.16-50 μM, 24 h): 10 to 20 µM | GST Yb (μ) induction (GST Yb (μ class)): effectively induced | GST Yb (μ) induction (GST Yb (μ class); listed as 4'-BF): induced by 4'-BF in a time, dose-dependent manner | inducer type (mono-/bifunctional) [1]: bifunctional inducer
